Test results: patent US4457865A, “Sialic acid specific slug lectin” (Research Corporation, priority 1982, dated 1984)
Read-outs that look alike come from different tables or passages of the source.

B1: fetuin: sialoprotein, highly purified bovine fetuin (protein, UniProt P12763 19-359, looked up)
Alpha-2-HS-glycoprotein: IPLDPVAGYKEPACDDPDTEQAALAAVDYINKHLPRGYKHTLNQIDSVKVWPRRPTGEVYDIEIDTLETTCHVLDPTPLANCSVRQQTQHAVEGDCDIHVLKQDGQFSVLFTKCDSSPDSAEDVRKLCPDCPLLAPLNDSRVVHAVEVALATFNAESNGSYLQLVEISRAQFVPLPVSVSVEFAVAATDCIAKEVVDPTKCNLLAEKQYGFCKGSVIQKALGGEDVRVTCTLFQTQPVIPQPQPDGAEAEAPSAVPDAAGPTPSAAGPPVASVVVGPSVVAVPLPLHRAHYDLRHTFSGVASVESSSGEAFHVGKTPIVGQPSIPGGPVRLCPGRIRYFKI

Key:
[1] = tested on: AS-40-80 fraction (partially purified LFA); assay: Inhibition of hemagglutination by partially purified LFA (AS-40-80 fraction); format: cell-based, Limax flavus; conditions: for Inhibition (%) AS-40-80 Fraction: 20 μg protein of AS-40-80 per assay
Description: (§1) Hemagglutination Assay: Aliquots of lectin were adjusted to 0.5 ml by addition of tris-saline buffer which contained 0.4 mg/ml gelatin. To this was added 0.5 ml of a solution containing human erythrocytes that had been washed several times with 0.9% NaCl and whose absorbance at 620 nm was ~2. After standing at room temperature for 30 min. the cells were gently pelleted by centrifugation in a Dynac centrifuge. The cells were resuspended by shaking and allowed to stand for 5 min. in order to permit aggregating cells to settle. The absorbance at 620 nm of the upper one-half ml of the erythrocyte suspension was measured and the data were plotted as A620 versus μg or μl of lectin. One unit of activity is defined as the amount of LFA which gave a 50% agglutination. Percent agglutination was calculated as follows: [formula]
(§2) A 0.5 ml aliquot of erythrocytes was added to the lectin plus inhibitor solution and the percent agglutination determined as described above. The percent inhibition of agglutination represents the difference between the percent agglutination with lectin alone and that obtained with lectin plus inhibitor.

[2] = tested on: purified LFA (sialic acid specific slug lectin); assay: Inhibition of hemagglutination by purified LFA; format: cell-based, Limax flavus; conditions: for Inhibition (%) Purified LFA: 0.34 μg purified LFA per assay; for IC50: read-out: Concentration giving 50% inhibition of hemagglutination, affinity purified LFA; for Ability to inhibit hemagglutination by purified slug lectin (in words): some 17 carbohydrates tested, concentrations as high as 10-25 mM
Description: as §1, §2

slug lectin = assay: Double diffusion of slug lectin in agar gel against sialoproteins; format: binding, Limax flavus

Molecule	Inhibition (%) AS-40-80 Fraction ([1]; carbohydrate 25.0 mM) [%]	Inhibition (%) Purified LFA ([2]; carbohydrate 25.0 mM) [%]	Inhibition of hemagglutination by the 40-80% ammonium sulfate fraction (in words) [1]	also measured
CO[C@H]1O[C@H](CO)[C@@H](O)[C@H](O)[C@H]1O [α-Methyl-D-Glucoside]	0	0	–	–
CO[C@H]1O[C@H](CO)[C@@H](O)[C@H](O)[C@@H]1O [α-Methyl-D-Mannose]	0	0	–	–
O=C(CO)N[C@H]1[C@H]([C@H](O)[C@H](O)CO)OC(O)(C(=O)O)C[C@@H]1O (stereo partly drawn) [N--Glycolyneuraminic Acid, N-glycolylneuraminic acid]	–	–	inhibition of hemagglutination	Inhibition (%) AS-40-80 Fraction ([1]; carbohydrate 1.0 mM): 88%; Inhibition (%) AS-40-80 Fraction ([1]; carbohydrate .25 mM): 3%; Inhibition (%) AS-40-80 Fraction ([1]; carbohydrate .50 mM): 20%; Inhibition (%) AS-40-80 Fraction ([1]; carbohydrate .75 mM): 56%; Inhibition (%) Purified LFA ([2]; carbohydrate 1.0 mM): 85%; Inhibition (%) Purified LFA ([2]; carbohydrate .25 mM): 0%; Inhibition (%) Purified LFA ([2]; carbohydrate .50 mM): 2%; Inhibition (%) Purified LFA ([2]; carbohydrate .75 mM): 14%; IC50 [2]: 900 µM; IC50 ([2]; listed as GlyNeu): 810 µM; Ability to inhibit hemagglutination by purified slug lectin (in words) [2]: effective
OC[C@H]1O[C@@](CO)(O[C@H]2O[C@H](CO)[C@@H](O)[C@H](O)[C@H]2O)[C@@H](O)[C@@H]1O [Sucrose]	0	0	–	–
CC(=O)N[C@H]1[C@H]([C@H](O)[C@H](O)CO)OC(O)(C(=O)O)C[C@@H]1O (stereo partly drawn) [N--Acetylneuraminic Acid, N-acetylneuraminic acid]	–	–	inhibition of hemagglutination	Inhibition (%) AS-40-80 Fraction ([1]; carbohydrate .05 mM): 6%; Inhibition (%) AS-40-80 Fraction ([1]; carbohydrate .10 mM): 17%; Inhibition (%) AS-40-80 Fraction ([1]; carbohydrate .15 mM): 27%; Inhibition (%) AS-40-80 Fraction ([1]; carbohydrate .20 mM): 94%; Inhibition (%) Purified LFA ([2]; carbohydrate .05 mM): 1%; Inhibition (%) Purified LFA ([2]; carbohydrate .10 mM): 28%; Inhibition (%) Purified LFA ([2]; carbohydrate .15 mM): 54%; Inhibition (%) Purified LFA ([2]; carbohydrate .20 mM): 100%; IC50 [2]: 130 µM; Ability to inhibit hemagglutination by purified slug lectin (in words) [2]: effective
N[C@H]1C(O)O[C@H](CO)[C@@H](O)[C@@H]1O (stereo partly drawn) [Glucosamine]	19	0	inhibition of hemagglutination	–
CC(=O)N[C@H]1C(O)O[C@H](CO)[C@@H](O)[C@@H]1O (stereo partly drawn) [N--Acetyl-D-Glucosamine]	–	–	inhibition of hemagglutination	Inhibition (%) AS-40-80 Fraction ([1]; carbohydrate 10.0 mM): 53%; Inhibition (%) Purified LFA ([2]; carbohydrate 10.0 mM): 0%
N[C@H]1C(O)O[C@H](CO)[C@H](O)[C@@H]1O (stereo partly drawn) [Galactosamine]	45	0	inhibition of hemagglutination	–
OC[C@H]1OC(O)[C@H](O)[C@@H](O)[C@@H]1O (single isomer, unassigned) [D (-) Glucose]	0	0	–	–
CC(=O)N[C@H]1C(O)O[C@H](CO)[C@H](O)[C@@H]1O (stereo partly drawn) [N--Acetyl-D-Galactosamine]	–	–	inhibition of hemagglutination	Inhibition (%) AS-40-80 Fraction ([1]; carbohydrate 10.0 mM): 75%; Inhibition (%) Purified LFA ([2]; carbohydrate 10.0 mM): 0%
OC[C@H]1OC(O)[C@@H](O)[C@@H](O)[C@@H]1O (single isomer, unassigned) [D (+) Mannose]	0	0	–	–
O[C@@H]1[C@@H](O)[C@@H](O)CO[C@H]1O [α (+) Arabinose]	0	0	–	–
O=C(O)[C@H]1OC(O)[C@H](O)[C@@H](O)[C@@H]1O (single isomer, unassigned) [D (-) Glucuronic Acid]	0	0	–	–
OC1OC[C@@H](O)[C@H](O)[C@H]1O (single isomer, unassigned) [D (+) Xylose]	0	0	–	–
OC[C@H]1O[C@@H](O[C@H]2[C@H](O)[C@@H](O)C(O)O[C@@H]2CO)[C@H](O)[C@@H](O)[C@H]1O (stereo partly drawn) [Lactose]	0	0	–	–
OC[C@H]1OC(O)[C@H](O)[C@@H](O)[C@H]1O (single isomer, unassigned) [D (+) Galactose]	0	0	–	–
C[C@@H]1O[C@@H](O)[C@@H](O)[C@H](O)[C@@H]1O [α-L(-) Fucose]	0	0	–	–
B1	–	–	–	Inhibitory activity on slug lectin hemagglutination after asialylation ([2]; after incubation at 80° for one hour in 0.1N H2SO4): complete loss of inhibitory activity; Precipitin lines in double diffusion against slug lectin after asialylation (slug lectin; asialylated sialoprotein): lost; Precipitin lines in double diffusion against slug lectin (slug lectin; native sialoprotein): yielded precipitin lines
